What was measured:
[1] = target: ATP-binding cassette sub-family C member 2 (Rattus norvegicus, UniProt Q63120); assay: TP_TRANSPORTER: inhibition of DNP-SG uptake in bile canalicular membrane vesicles from SD rat; format: functional, cell membranes, Sprague-Dawley, Bile canalicular membrane vesicle
[2] = substrate: Nc1nc(N)c2nc(CN3CCSc4cc(C(=O)NC(CCCC(=O)O)C(=O)O)ccc43)cnc2n1; assay: TP_TRANSPORTER: uptake in bile canalicular membrane vesicles from SD rat; format: functional, cell membranes, Sprague-Dawley, Bile canalicular membrane vesicle

| Ki [1] [µM] | Molecule | Km [2] [µM] |
| --- | --- | --- |
| 162 | Nc1nc(N)c2nc(CN3CCSc4cc(C(=O)NC(CCCC(=O)O)C(=O)O)ccc43)cnc2n1 (configuration not stated) | – |
| – | ATP-binding cassette sub-family C member 2 (Rattus norvegicus) (protein) MDKFCNSTFWDLSLLESPEADLPLCFEQTVLVWIPLGFLWLLAPWQLYSVYRSRTKRSSITKFYLAKQVFVVFLLILAAIDLSLALTEDTGQATVPPVRYTNPILYLCTWLLVLAVQHSRQWCVRKNSWFLSLFWILSVLCGVFQFQTLIRALLKDSKSNMAYSYLFFVSYGFQIVLLILTAFSGPSDSTQTPSVTASFLSSITFSWYDRTVLKGYKHPLTLEDVWDIDEGFKTRSVTSKFEAAMTKDLQKARQAFQRRLQKSQRKPEATLHGLNKKQSQSQDVLVLEEAKKKSEKTTKDYPKSWLIKSLFKTFHVVILKSFILKLIHDLLVFLNPQLLKLLIGFVKSSNSYVWFGYICAILMFAVTLIQSFCLQSYFQHCFVLGMCVRTTVMSSIYKKALTLSNLARKQYTIGETVNLMSVDSQKLMDATNYMQLVWSSVIQITLSIFFLWRELGPSILAGVGVMVLLIPVNGVLATKIRNIQVQNMKNKDKRLKIMNEILSGIKILKYFAWEPSFQEQVQGIRKKELKNLLRFGQLQSLLIFILQITPILVSVVTFSVYVLVDSANVLNAEKAFTSITLFNILRFPLSMLPMVTSSILQASVSVDRLERYLGGDDLDTSAIRRVSNFDKAVKFSEASFTWDPDLEATIQDVNLDIKPGQLVAVVGTVGSGKSSLVSAMLGEMENVHGHITIQGSTAYVPQQSWIQNGTIKDNILFGSEYNEKKYQQVLKACALLPDLEILPGGDMAEIGEKGINLSGGQKQRVSLARAAYQDADIYILDDPLSAVDAHVGKHIFNKVVGPNGLLAGKTRIFVTHGIHFLPQVDEIVVLGKGTILEKGSYRDLLDKKGVFARNWKTFMKHSGPEGEATVNNDSEAEDDDDGLIPTMEEIPEDAASLAMRRENSLRRTLSRSSRSSSRRGKSLKNSLKIKNVNVLKEKEKEVEGQKLIKKEFVETGKVKFSIYLKYLQAVGWWSILFIILFYGLNNVAFIGSNLWLSAWTSDSDNLNGTNNSSSHRDMRIGVFGALGLAQGICLLISTLWSIYACRNASKALHGQLLTNILRAPMRFFDTTPTGRIVNRFSGDISTVDDLLPQTLRSWMMCFFGIAGTLVMICMATPVFAIIIIPLSILYISVQVFYVATSRQLRRLDSVTKSPIYSHFSETVTGLPIIRAFEHQQRFLAWNEKQIDINQKCVFSWITSNRWLAIRLELVGNLVVFCSALLLVIYRKTLTGDVVGFVLSNALNITQTLNWLVRMTSEAETNIVAVERISEYINVENEAPWVTDKRPPADWPRHGEIQFNNYQVRYRPELDLVLKGITCNIKSGEKVGVVGRTGAGKSSLTNCLFRILESAGGQIIIDGIDVASIGLHDLRERLTIIPQDPILFSGSLRMNLDPFNKYSDEEVWRALELAHLRSFVSGLQLGLLSEVTEGGDNLSIGQRQLLCLGRAVLRKSKILVLDEATAAVDLETDSLIQTTIRKEFSQCTVITIAHRLHTIMDSDKIMVLDNGKIVEYGSPEELLSNRGSFYLMAKEAGIENVNHTEL | 207 |

From ChEMBL document CHEMBL2073856, “Carrier-mediated hepatobiliary transport of a novel antifolate, N-[4-[(2,4-dianninopteridine-6-yl)methyl]-3,4-dihydro-2H-1,4-benzothiazin-7-yl]carbonyl-L-homoglutamic acid, in rats” (Drug Metab Dispos, 2001)
